Assays:
PL21 = experiment: AML cell line in vitro proliferation assay; type: cell-based
Experimental: (§1) Narazaciclib was serially diluted with culture medium to 9 final assay concentrations from 0.01 to 100 μM. The assay was performed with both a negative control (vehicle) and a positive control (Cisplatin) in triplicate. The AML cell lines at log-growth phase were cultured in 96-well plates (black transparent flat bottom 96-well plate, Corning, Cat# 3603, FBS, ExCell Bio., Cat# FND500) in the presence of narazaciclib or Cisplatin at various concentrations for 72 h or 120 h (only for AML-193 cell line), followed by CTG readout according to the manufacturer’s instruction (CellTiter-Glo Luminescent Cell Viability Assay, Promega, Cat# G7573). Viability%=Lumdrug-Lummedium control/Lumcell control-Lummedium control×100%. Lumcell control-Lummedium controlas100%,LumMediumcontrolas0%. Proliferationfold increase=D5-LumNone treated-LumMedium control/D2LumNone treated-LumMedium control
(§2) Dose–response curves were fitted by a 4-parameter log-logistic model: Inhibition%=Bottom+Top-Bottom/1+10^logEC50-x∗HillSlope where Top and Bottom are the two asymptotes of the sigmoidal curve, EC50 is the relative IC50, concentration x is in log-10 scale and HillSlope is the slope at the EC50 point on the fitted curve. The fitted area under the curve (AUC) was calculated by: Inhibition%=Bottom+Top-Bottom/1+10^logEC50-x∗HillSlope where a represents the log10-transformed minimal concentration and b represents the log10-transformed maximal concentration. An extremely strong positive correlation between the absolute IC50 and AUC is shown in Supplemental Fig. S5.

NOMO-1 = experiment: AML cell line in vitro proliferation assay; type: cell-based
Experimental: as §1, §2

TF-1 = experiment: AML cell line in vitro proliferation assay; type: cell-based
Experimental: as §1, §2

HL-60 = experiment: AML cell line in vitro proliferation assay; type: cell-based
Experimental: as §1, §2

MV-4–11 = experiment: AML cell line in vitro proliferation assay; type: cell-based
Experimental: as §1, §2

OCI-M1 = experiment: AML cell line in vitro proliferation assay; type: cell-based
Experimental: as §1, §2

AML cell lines = experiment: In vitro proliferation assay, panel of 33 AML cell lines (summary statements); type: cell-based; settings: a subset of AML lines; read-out: IC50 growth inhibition
Experimental: as §1, with “Proliferationfold increase=D5-LumNone treated-LumMedium control/D2LumNone treated-LumMedium control” left out
Dose–response curves were fitted by a 4-parameter log-logistic model: Inhibition%=Bottom+Top-Bottom/1+10^logEC50-x∗HillSlope where Top and Bottom are the two asymptotes of the sigmoidal curve, EC50 is the relative IC50, concentration x is in log-10 scale and HillSlope is the slope at the EC50 point on the fitted curve. The fitted area under the curve (AUC) was calculated by: Inhibition%=Bottom+Top-Bottom/1+10^logEC50-x∗HillSlope where a represents the log10-transformed minimal concentration and b represents the log10-transformed maximal concentration. […]

SIK1 = SIK1 (Homo sapiens, UniProt P57059); experiment: Additional kinase inhibition panel; type: biochemical
From the text: (§3) Supplement 41598_2024_59650_MOESM2_ESM.docx, table 4: Supplemental Table S4. IC50 of Narazaciclib against additional kinases | column: Narazaciclib (µM); Narazaciclib metabolite (µM)

PDGFRα = PDGFRα (Homo sapiens, UniProt P16234); experiment: Additional kinase inhibition panel; type: biochemical
From the text: as §3

FGFR3 = FGFR3 (Homo sapiens, UniProt P22607); experiment: Additional kinase inhibition panel; type: biochemical
From the text: as §3

PDGFRβ = PDGFRβ (Homo sapiens, UniProt P09619); experiment: Additional kinase inhibition panel; type: biochemical
From the text: as §3

FGFR1 = FGFR1 (Homo sapiens, UniProt P11362); experiment: Additional kinase inhibition panel; type: biochemical
From the text: as §3

FGFR2 = FGFR2 (Homo sapiens, UniProt P21802); experiment: Additional kinase inhibition panel; type: biochemical
From the text: as §3

ABL-1 = ABL-1 (Homo sapiens, UniProt P00519); experiment: Additional kinase inhibition panel; type: biochemical
From the text: as §3

SIK3 = SIK3 (Homo sapiens, UniProt Q9Y2K2); experiment: Additional kinase inhibition panel; type: biochemical
From the text: as §3

CDK9 = CDK9 (Homo sapiens, UniProt P50750); experiment: Additional kinase inhibition panel; type: biochemical
From the text: as §3

FGFR4 = FGFR4 (Homo sapiens, UniProt P22455); experiment: Additional kinase inhibition panel; type: biochemical
From the text: as §3

SIK2 = SIK2 (Homo sapiens, UniProt Q9H0K1); experiment: Additional kinase inhibition panel; type: biochemical
From the text: as §3

RET = RET (Homo sapiens, UniProt P07949); experiment: Additional kinase inhibition panel; type: biochemical
From the text: as §3

C-Kit = C-Kit (Homo sapiens, UniProt P10721); experiment: Additional kinase inhibition panel; type: biochemical
From the text: as §3

parental Ba/F3 line = experiment: Parental Ba/F3 proliferation assay (CTG); type: cell-based; settings: Mus musculus, BaF3
Experimental: (§4) The recombinant Ba/F3 cell lines overexpressing human CSF1R, or human RBM6-CSF1R, or human ETV6-CSF1R were generated using a retrovirus vector (Kyinno Co., Ltd. Beijing). The recombinant Ba/F3 lines overexpressing human Kras G12C orEGFR-L718Q mutants, and different mutant variants of FLT3 were also similarly created as well. A standard proliferation assay via CTG readout was performed according to the vendor’s instructions (KYinno Biotechnology Co., Ltd. Beijing).

Ba/F3-FLT3-ITD (N701K) = Ba/F3-FLT3-ITD (N701K) proliferation assay; type: cell-based, mouse
Experimental: as §4

Ba/F3-KRAS-G12C = Ba/F3-KRAS-G12C proliferation assay (CTG); type: cell-based; settings: Mus musculus
Experimental: as §4

Ba/F3-FLT3-ITD (D835V) = Ba/F3-FLT3-ITD (D835V) proliferation assay; type: cell-based, mouse
Experimental: as §4

Ba/F3-FLT3-ITD (D835Y) = Ba/F3-FLT3-ITD (D835Y) proliferation assay; type: cell-based, mouse
Experimental: as §4

Sequence of ABL-1 (P00519 whole entry): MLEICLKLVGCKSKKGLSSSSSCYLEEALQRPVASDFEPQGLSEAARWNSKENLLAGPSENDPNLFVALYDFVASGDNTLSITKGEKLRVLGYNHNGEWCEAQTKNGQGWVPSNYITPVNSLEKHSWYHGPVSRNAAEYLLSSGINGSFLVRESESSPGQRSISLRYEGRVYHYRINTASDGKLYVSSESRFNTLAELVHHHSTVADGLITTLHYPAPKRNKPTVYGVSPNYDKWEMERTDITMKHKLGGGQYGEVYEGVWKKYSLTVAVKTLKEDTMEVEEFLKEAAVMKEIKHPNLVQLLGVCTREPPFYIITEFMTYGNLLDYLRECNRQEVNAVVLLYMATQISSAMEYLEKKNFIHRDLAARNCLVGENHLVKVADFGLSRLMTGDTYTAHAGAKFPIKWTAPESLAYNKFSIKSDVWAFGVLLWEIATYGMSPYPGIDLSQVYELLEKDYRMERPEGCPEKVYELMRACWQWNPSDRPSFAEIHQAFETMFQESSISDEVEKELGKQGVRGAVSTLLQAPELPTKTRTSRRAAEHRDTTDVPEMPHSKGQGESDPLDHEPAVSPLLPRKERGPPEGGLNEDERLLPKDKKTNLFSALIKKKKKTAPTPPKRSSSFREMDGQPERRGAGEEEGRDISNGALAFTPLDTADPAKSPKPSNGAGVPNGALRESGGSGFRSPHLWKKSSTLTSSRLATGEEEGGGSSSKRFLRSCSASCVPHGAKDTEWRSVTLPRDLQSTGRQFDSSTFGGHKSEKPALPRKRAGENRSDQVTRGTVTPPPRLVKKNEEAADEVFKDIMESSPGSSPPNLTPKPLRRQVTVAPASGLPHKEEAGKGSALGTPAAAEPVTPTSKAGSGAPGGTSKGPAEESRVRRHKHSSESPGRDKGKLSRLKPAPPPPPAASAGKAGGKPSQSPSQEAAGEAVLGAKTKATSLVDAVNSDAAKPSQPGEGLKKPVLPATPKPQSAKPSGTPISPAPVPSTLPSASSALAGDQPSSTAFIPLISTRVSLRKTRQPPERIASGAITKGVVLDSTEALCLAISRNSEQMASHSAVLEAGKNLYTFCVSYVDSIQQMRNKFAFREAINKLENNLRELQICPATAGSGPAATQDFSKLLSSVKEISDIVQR
Sequence of PDGFRβ (P09619 33-1106): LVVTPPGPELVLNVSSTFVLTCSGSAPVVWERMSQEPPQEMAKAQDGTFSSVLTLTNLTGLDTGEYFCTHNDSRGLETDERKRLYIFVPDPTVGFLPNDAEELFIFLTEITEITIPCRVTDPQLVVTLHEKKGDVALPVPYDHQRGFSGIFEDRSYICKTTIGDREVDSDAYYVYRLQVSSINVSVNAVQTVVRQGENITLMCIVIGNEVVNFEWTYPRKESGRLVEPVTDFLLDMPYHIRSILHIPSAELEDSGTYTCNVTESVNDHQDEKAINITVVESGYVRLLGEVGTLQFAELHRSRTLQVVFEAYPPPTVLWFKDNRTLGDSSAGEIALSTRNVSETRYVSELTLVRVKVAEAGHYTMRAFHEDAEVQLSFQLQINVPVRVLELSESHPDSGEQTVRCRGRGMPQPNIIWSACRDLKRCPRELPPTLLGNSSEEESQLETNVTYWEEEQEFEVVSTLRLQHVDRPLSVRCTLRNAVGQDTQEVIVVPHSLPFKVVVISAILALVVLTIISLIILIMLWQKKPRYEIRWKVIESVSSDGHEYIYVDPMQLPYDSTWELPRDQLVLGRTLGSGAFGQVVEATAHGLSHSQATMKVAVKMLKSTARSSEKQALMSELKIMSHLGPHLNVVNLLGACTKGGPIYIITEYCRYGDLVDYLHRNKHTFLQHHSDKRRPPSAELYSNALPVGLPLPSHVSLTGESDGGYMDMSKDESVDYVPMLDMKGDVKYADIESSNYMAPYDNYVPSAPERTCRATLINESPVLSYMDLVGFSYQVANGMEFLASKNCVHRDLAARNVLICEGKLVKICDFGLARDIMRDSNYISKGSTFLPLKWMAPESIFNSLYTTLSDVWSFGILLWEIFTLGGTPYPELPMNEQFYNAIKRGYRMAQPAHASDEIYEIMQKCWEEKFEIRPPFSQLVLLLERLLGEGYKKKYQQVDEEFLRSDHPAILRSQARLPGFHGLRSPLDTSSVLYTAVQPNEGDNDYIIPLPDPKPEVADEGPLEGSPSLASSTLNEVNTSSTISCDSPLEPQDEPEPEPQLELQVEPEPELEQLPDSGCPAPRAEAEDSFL
Sequence of PDGFRα (P16234 24-1089): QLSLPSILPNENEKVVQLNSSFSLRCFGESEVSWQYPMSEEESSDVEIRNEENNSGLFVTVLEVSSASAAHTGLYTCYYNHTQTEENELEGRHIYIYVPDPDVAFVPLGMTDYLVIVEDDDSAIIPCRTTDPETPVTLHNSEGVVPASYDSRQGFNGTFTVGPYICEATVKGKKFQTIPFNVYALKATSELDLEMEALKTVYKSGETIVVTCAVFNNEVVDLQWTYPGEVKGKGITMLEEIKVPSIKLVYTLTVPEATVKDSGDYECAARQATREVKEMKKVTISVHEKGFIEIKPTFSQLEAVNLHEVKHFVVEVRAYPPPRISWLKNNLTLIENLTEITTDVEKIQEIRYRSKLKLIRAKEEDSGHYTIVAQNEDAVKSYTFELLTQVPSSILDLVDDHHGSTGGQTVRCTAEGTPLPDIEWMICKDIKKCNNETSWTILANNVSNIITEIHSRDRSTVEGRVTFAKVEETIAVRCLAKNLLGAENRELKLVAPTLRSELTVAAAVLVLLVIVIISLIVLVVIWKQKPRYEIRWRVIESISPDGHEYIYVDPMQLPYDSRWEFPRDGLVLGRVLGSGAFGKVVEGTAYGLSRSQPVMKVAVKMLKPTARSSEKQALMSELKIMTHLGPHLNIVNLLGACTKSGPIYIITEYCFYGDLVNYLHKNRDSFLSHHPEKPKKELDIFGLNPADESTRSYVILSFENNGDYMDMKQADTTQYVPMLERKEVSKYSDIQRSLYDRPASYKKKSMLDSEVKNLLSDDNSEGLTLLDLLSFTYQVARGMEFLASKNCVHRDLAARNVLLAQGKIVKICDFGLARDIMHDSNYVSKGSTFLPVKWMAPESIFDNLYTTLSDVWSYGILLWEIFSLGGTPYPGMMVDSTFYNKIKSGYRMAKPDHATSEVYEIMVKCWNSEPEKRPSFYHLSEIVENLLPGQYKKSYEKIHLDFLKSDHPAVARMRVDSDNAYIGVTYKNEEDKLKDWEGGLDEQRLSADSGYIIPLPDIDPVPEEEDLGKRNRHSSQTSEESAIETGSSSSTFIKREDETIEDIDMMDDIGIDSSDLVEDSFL
Sequence of SIK3 (Q9Y2K2 whole entry): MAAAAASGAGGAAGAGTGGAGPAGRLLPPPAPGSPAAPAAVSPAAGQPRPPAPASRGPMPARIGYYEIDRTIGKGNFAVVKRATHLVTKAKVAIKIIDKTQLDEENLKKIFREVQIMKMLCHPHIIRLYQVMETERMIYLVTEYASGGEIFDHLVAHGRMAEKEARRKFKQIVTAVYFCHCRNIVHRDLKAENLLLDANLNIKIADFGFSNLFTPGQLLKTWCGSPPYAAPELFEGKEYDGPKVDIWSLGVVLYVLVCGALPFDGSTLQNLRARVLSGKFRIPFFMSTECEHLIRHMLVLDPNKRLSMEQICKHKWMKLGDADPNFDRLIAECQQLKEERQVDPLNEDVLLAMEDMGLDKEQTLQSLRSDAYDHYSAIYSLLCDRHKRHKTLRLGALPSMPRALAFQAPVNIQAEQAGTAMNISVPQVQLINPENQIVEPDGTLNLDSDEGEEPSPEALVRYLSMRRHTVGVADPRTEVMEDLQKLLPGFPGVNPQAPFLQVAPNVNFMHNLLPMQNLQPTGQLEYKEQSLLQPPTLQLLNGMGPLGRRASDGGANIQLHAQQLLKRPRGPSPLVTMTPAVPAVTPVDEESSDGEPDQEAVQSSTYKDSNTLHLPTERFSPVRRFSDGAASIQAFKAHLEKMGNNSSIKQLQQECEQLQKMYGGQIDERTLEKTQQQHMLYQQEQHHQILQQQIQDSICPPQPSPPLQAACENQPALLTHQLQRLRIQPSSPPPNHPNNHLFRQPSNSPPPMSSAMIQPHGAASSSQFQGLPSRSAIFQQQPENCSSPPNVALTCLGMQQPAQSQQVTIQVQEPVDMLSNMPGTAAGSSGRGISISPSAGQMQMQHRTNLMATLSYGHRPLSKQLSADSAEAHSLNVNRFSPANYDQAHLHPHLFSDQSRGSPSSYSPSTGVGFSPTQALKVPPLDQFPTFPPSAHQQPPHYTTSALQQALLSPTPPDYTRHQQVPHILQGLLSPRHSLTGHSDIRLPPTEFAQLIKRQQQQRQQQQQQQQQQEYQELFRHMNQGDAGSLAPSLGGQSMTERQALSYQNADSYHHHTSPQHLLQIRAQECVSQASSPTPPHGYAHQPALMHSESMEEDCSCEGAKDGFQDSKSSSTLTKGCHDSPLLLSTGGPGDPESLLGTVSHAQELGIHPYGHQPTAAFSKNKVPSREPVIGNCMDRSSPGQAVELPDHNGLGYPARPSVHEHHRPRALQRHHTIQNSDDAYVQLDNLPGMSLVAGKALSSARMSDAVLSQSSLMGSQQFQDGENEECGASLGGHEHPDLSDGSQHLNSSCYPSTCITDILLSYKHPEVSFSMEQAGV

`CN1CCN(c2ccc(Nc3ncc4cc(C#N)c(=O)n(C5CCCC5)c4n3)cc2)CC1` [Narazaciclib, narazaciclib] was tested, and the “Classification by AUC” value (PL21; PL21) was “Sensitive (AUC ≤ 2.4, sensitive)”, the AUC (PL21; PL21, area under the dose–response curve) was 2.37 and the IC50 (PL21; PL-21, PL21, 72 h, CTG) was 3.4 µM. For the same compound, the IC50 (NOMO-1; Homo sapiens, NOMO-1, 72 h, CTG) was greater than 100 µM, the “Classification by AUC” value (NOMO-1; NOMO-1) was “Insensitive (AUC ≥ 2.8, insensitive)” and the AUC (NOMO-1; NOMO-1, area under the dose–response curve) was 3.207. For the same compound, the IC50 (TF-1; Homo sapiens, TF-1, 72 h, CTG) was 50.8 µM, the “Classification by AUC” value (TF-1; TF-1) was “Insensitive (AUC ≥ 2.8, insensitive)” and the AUC (TF-1; TF-1, area under the dose–response curve) was 3.502. For the same compound, the “Classification by AUC” value (HL-60; HL-60) was “Insensitive (AUC ≥ 2.8, insensitive)”, the AUC (HL-60; HL-60, area under the dose–response curve) was 2.836 and the IC50 (HL-60; Homo sapiens, HL-60, 72 h, CTG) was 6.14 µM. The IC50 (MV-4–11; Homo sapiens, MV4-11, MV-4–11, 72 h, CTG) was 264 nM, the “Classification by AUC” value (MV-4–11; MV-4–11) was “Sensitive (AUC ≤ 2.4, sensitive)” and the AUC (MV-4–11; MV-4–11, area under the dose–response curve) was 1.454. The “Classification by AUC” value (OCI-M1; OCI-M1) was “Insensitive (AUC ≥ 2.8, insensitive)”, the IC50 (OCI-M1; OCI-M1, 72 h, CTG) was 19.5 µM and the AUC (OCI-M1; OCI-M1, area under the dose–response curve) was 3.404. The IC50 (AML cell lines) was less than 1500 nM, the IC50 (SIK1) was 34 nM and the IC50 (PDGFRα) was 104 nM. The IC50 (FGFR3) was 187 nM, the IC50 (PDGFRβ) was 10 nM and the IC50 (FGFR1) was 38 nM. For the same compound, the IC50 (FGFR2) was 20 nM, the IC50 (ABL-1) was 38 nM and the IC50 (SIK3) was 24 nM. The IC50 (CDK9) was 28 nM, the IC50 (FGFR4) was 2740 nM and the IC50 (SIK2) was 2 nM. For the same compound, the IC50 (RET) was 16 nM, the IC50 (C-Kit) was 9 nM and the IC50 (parental Ba/F3 line) was 1350 nM. For the same compound, the “% of Ba/F3-FLT3 (IC50)” value (Ba/F3-FLT3-ITD (N701K)) was 38.91%, the IC50 (Ba/F3-FLT3-ITD (N701K); Mus musculus) was 117 nM and the IC50 (Ba/F3-KRAS-G12C) was 490 nM. For the same compound, the “% of Ba/F3-FLT3 (IC50)” value (Ba/F3-FLT3-ITD (D835V)) was 9.84%, the IC50 (Ba/F3-FLT3-ITD (D835V); Mus musculus) was 29.6 nM and the “% of Ba/F3-FLT3 (IC50)” value (Ba/F3-FLT3-ITD (D835Y)) was 20.19%. The IC50 (Ba/F3-FLT3-ITD (D835Y); Mus musculus) was 60.8 nM.
